pEC50: −log10 of the molar value. Counter-ions that a name gives are not always drawn. Like-named read-outs stand apart in the source and are kept apart here.
Tests used:
[1] = Bronchodilation activity: Ach-induced increase in Penh, barometric plethysmography after nebulisation; type: in vivo, guinea pigs; conditions: male, guinea pig, lung, inhaled; nebulisation with submaximal bronchodilator activity, 2 hours after treatment; read-out: retained dose in the target organ (lung levels)
Procedure: (§1) Airway reactivity is measured using barometric plethysmography (Buxco, USA). Male guinea pigs (500-600 g) are individually placed in plexiglass chambers. After an acclimatisation period, animals are exposed to nebulised saline for 1 minute to obtain airway baseline reading. This is followed by a 1 minute challenge with nebulised acetylcholine (Ach)-2.5 mg/mL.
(§2) After 60 minutes, 5 minutes nebulisation of vehicle or the compound 1′ in the range 2.5-250 μM are applied and Ach challenge is then repeated after 2, 5, 24, 48, and 72 hours (h). Recording of pressure fluctuations in the chambers are taken for 5 minutes after each nebulisation and analysed to calculate Enhanced Pause (Penh). Airway reactivity is expressed as percentage increase in Penh compared with Penh values from the nebulisation of vehicle.

[2] = tested on: acetylcholine (Ach) challenge, airway reactivity; experiment: as above; type: in vivo, guinea pigs; conditions: for bronchoprotective effect: twenty-four hours
Procedure: as §1, §2

[3] = tested on: carbachol-induced contraction in guinea-pigs trachea; experiment: Carbachol-induced contraction in guinea-pig trachea strips, relaxation, isobolographic analysis; type: cell-based; conditions: Cavia porcellus, read-out: ED50, relaxation of carbachol-induced contraction
Procedure: Male guinea-pigs (380-420 g) are used. The investigation conforms to the Guide for the Care and Use of Laboratory Animals published by the US National Institutes of Health (NIH Publication No. 85-23, revised 1996).
The trachea is removed, cleaned and cut into two zig-zag strips, according to Emmerson et al. (J. Pharm. Pharmacol., 1979; 31:798). A sub-maximal concentration of carbachol (3×10^−7 M) is then added to the organ bath and when stable contraction is reached, a cumulative concentration-response curve (from 1×10^−11 to 1×10^−7 M) to carmoterol or compound 1′ is generated (n=12 for each compound). Maximal relaxation is tested by adding a maximal dose of isoproterenol (3×10^−7 M) at the end of the curve. Data are expressed as percentages of the isoproterenol-induced maximal relaxation. Isobolographic analysis is used to characterize the pharmacological interaction between carmoterol and compound 1′.
To estimate the experimental ED50MIX, the dose-effect curve resulting from this second set of experiments (Table 1) is fitted with a mixed logistic model. All computations are carried out resorting to NLMIXED procedure (SAS/STAT® User's Guide, version 9, 2004. SAS Institute Inc., Cary, N.C.).

M2 muscarinic receptors = target: T1, M2 muscarinic receptors (Homo sapiens, UniProt P08172); experiment: Dissociation / duration of action on M2 receptors; type: binding; conditions: compared with tiotropium bromide
T1 sequence (P08172 1-466): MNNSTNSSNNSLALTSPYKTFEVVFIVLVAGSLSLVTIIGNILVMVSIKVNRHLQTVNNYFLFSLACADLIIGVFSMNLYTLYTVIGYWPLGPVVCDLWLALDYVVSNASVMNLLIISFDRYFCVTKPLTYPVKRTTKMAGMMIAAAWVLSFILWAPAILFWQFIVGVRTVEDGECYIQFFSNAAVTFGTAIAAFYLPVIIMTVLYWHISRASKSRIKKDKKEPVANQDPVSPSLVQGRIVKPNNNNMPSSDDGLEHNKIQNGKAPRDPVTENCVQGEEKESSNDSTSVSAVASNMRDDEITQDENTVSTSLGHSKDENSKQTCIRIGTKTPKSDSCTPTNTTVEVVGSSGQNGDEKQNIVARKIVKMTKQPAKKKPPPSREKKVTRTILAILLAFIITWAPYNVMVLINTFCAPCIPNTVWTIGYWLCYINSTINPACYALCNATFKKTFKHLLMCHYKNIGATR

muscarinic receptors = experiment: Receptor potency and duration of action compared with tiotropium bromide

Which concentration at 2 h [1] does the source give for O=C(C[N+]12CCC(CC1)C(OC(=O)N(Cc1cc(F)c(F)c(F)c1)c1cccc(F)c1)C2)c1cccs1 (stereo not shown) [compound 1′, 3-[[[(3-fluorophenyl)[(3,4,5-trifluorophenyl)methyl]amino]carbonyl]oxy]-1-[2-oxo-2-(2-thienyl)ethyl]-1-azoniabicyclo [2.2.2]octane] here?
Its concentration at 2 h is about 50 ng/g.

What about the bronchoprotective effect ([2]; 25 μM inhalation) of the same compound?
Its bronchoprotective effect is 63.7±15.1%.

What about the “inhibition of Ach-induced increase in Penh” value ([2]; 50 μM inhalation, 48 hours) of the same compound?
Its value is 49.2±23.2%.

What about the bronchoprotective effect ([2]; 50 μM inhalation) of the same compound?
The bronchoprotective effect was 87.1±8.7%.

What about the “maximal effect, inhibition of Ach-induced increase in Penh” value ([2]; 50 μM nebulised, two hours after end of nebulisation) of the same compound?
The value was 99.6±0.4.

What about the “inhibition of Ach-induced increase in Penh (effect)” value ([2]; 250 μM inhalation, 48 hours) of the same compound?
Its value is 83.0±16.1%.

And the “residual activity, inhibition of Ach-induced increase in Penh” value ([2]; 250 μM inhalation, 72 hours)?
Its value is 34.8±20.9%.

And the duration of effect ([2]; inhalation of lower concentrations (below 25 μM))?
Its duration of effect is at most 5 h.

And the pEC50 [3]?
Its pEC50 is 9.03.

With COc1ccc(C[C@@H](C)NC[C@H](O)c2ccc(O)c3[nH]c(=O)ccc23)cc1 [carmoterol, reference compound] as the compound, how does the pEC50 ([3]; carbachol 3×10^−7 M, % of isoproterenol-induced maximal relaxation, n=12) read?
Its pEC50 is 9.27.

Which “duration of action on the M2 receptors” value (M2 muscarinic receptors) does the source give for O=C(C[N+]12CCC(CC1)C(OC(=O)N(Cc1cc(F)c(F)c(F)c1)c1cccc(F)c1)C2)c1cccs1 (stereo not shown) [chloride salt of active compound 1, 3-[[[(3-fluorophenyl)[(3,4,5-trifluorophenyl)methyl]amino]carbonyl]oxy]-1-[2-oxo-2-(2-thienyl)ethyl]-1-azoniabicyclo[2.2.2]octane] here?
The value was “significantly short-acting”.

And the duration of action (muscarinic receptors)?
Its duration of action is “equieffective to tiotropium bromide”.

And the receptor potency (muscarinic receptors)?
The receptor potency was “equieffective to tiotropium bromide”.

— patent US20090181935A1, “COMPOSITIONS COMPRISING AN […] AND A LONG-ACTING BETA-AGONIST” (Chiesi Farmaceutici S.p.A., priority 2008, published 2009)
